C[C@H]1[C@H](OC(=O)CCC(=O)O)O[C@@H]2O[C@@]3(C)CC[C@H]4[C@H](C)CC[C@@H]1[C@@]24OO3
solubility (mole fraction)
Conditions	278.15 K	283.15 K	288.15 K	293.15 K	298.15 K	303.15 K	308.15 K	313.15 K	318.15 K
in ethanol	0.00528	0.00575	0.00636	0.00709	0.00782	0.00854	0.00939	0.0102	0.0111
in isopropanol	0.00285	0.00336	0.00392	0.00461	0.00527	0.00609	0.00698	0.00796	0.00898
in methanol	0.00497	0.00538	0.00606	0.00677	0.00747	0.00817	0.00906	0.00994	0.0108
in propylene glycol	0.001	0.00123	0.00148	0.00176	0.00205	0.00237	0.00279	0.0032	0.00366
in water	9.48e-06	1.28e-05	1.66e-05	2.16e-05	2.71e-05	3.51e-05	4.44e-05	5.54e-05	6.94e-05
